Consider one compound from article PMC12376128, “In vitro and In Vivo Drug Metabolism Analysis of BPI-460372 - A Covalent TEAD1/3/4 Inhibitor” (Current Drug Metabolism, 2025).

In one data set the target is T1, recombinant human CYP3A4 (Homo sapiens, UniProt P08684).
T1 construct: purchased Cypex Ltd. (Dundee, UK)
The data set is described as follows: Metabolic stability in recombinant human CYP isoenzymes. The class given is in vitro ADME. Particulars: rCYP3A4 100 pmol P450/mL, 1 µM. The procedure: (§1) To identify the specific isoform that participates in the metabolism of BPI-460372, 1 µM BPI-460372 or positive control substrates were mixed with recombinant human CYP1A2, 2B6, 2C8, 2C9, 2C19, 2D6 or 3A4 (100 pmol P450·mL^-1), and the reaction was started by the addition of NADPH (1 mM final concentration) after 5-minute preincubation at 37°C. Aliquots were maintained in acetonitrile containing IS at different time points at 0 min, 5 min, 10 min, 20 min, 30 min, and 60 min. All incubations were performed in triplicate, and the concentration of the supernatant was determined by LC-MS/MS.
(§2) A substrate depletion approach was employed to determine the intrinsic clearance (CLint (rCYPj)) for each isoform. The contribution of each isoform was estimated using equations 2 and 3. CYPj abundance was evaluated as the abundance (CYPj) of each isoform in HLMs (pmol/mg protein).

The target in a further data set is T2, recombinant human CYP2C8 (Homo sapiens, UniProt P10632).
T2 construct: purchased Cypex Ltd. (Dundee, UK)
T2 sequence (P10632 1-490): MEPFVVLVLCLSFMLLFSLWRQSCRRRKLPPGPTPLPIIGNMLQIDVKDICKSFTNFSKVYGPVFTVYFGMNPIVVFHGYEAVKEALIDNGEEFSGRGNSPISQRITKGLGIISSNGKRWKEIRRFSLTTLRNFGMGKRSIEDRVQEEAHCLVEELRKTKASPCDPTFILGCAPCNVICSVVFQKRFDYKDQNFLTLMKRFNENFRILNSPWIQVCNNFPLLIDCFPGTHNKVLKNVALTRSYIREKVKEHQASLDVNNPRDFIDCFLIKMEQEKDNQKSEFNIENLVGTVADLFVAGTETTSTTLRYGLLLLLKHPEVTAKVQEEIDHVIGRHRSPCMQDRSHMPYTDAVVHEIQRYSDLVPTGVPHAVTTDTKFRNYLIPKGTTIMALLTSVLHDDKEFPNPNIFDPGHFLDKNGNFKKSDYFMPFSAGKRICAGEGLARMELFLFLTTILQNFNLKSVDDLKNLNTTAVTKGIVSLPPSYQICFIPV
The description is as above. The class given is in vitro ADME. The conditions noted are these: rCYP2C8 100 pmol P450/mL, 1 µM. As to the method:
as §1, §2

A further data set has as its target CYP2C9 (Homo sapiens, UniProt P11712). Described as above. The conditions noted are these: rCYP2C9 100 pmol P450/mL, 1 µM. The class given is in vitro ADME. The arrangement: purchased Cypex Ltd. (Dundee, UK). As to the method: as §1, §2
Another data set has as its target CYP2D6 (Homo sapiens, UniProt P10635). Described as above. Format: in vitro ADME. The arrangement: purchased Cypex Ltd. (Dundee, UK). Particulars: rCYP2D6 100 pmol P450/mL, 1 µM. The procedure: as §1, §2
In data set [1] the target is T3, CYP1A2 (Homo sapiens, UniProt P05177).
T3 sequence (P05177 1-516): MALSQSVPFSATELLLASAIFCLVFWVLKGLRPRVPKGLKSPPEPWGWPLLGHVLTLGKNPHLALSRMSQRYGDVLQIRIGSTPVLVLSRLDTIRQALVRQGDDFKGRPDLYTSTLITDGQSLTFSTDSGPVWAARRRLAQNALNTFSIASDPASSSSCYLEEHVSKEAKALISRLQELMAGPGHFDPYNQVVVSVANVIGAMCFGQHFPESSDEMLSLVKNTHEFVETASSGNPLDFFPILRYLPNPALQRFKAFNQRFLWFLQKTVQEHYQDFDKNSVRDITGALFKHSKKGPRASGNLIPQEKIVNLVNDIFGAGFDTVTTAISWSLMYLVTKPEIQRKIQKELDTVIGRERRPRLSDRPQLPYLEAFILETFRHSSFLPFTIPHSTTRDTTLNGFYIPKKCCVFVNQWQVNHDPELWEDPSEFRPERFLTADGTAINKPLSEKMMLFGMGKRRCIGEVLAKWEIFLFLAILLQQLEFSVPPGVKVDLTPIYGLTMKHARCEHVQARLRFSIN
Described as above. Format: in vitro ADME. Further details: purchased Cypex Ltd. (Dundee, UK). The conditions noted are these: rCYP1A2 100 pmol P450/mL, 1 µM. As to the method:
as §1, §2

In another data set the test system is TEAD palmitoylation. Further details: method as in doi:10.1158/1538-7445.AM2023-501. Particulars: cited from earlier work.
The next data set has as its system mouse hepatocytes. The data set is described as follows: Metabolism and metabolite formation in hepatocytes. Format: in vitro ADME, ICR mouse. Particulars: ICR mouse hepatocytes, 10 µM BPI-460372, 4 h incubation. From the text:
All the samples were duplicates.

Data set [2] has as its target T3, CYP1A2. The data set can be described thus: Metabolic stability in HLMs with or without specific CYP inhibitor (α-naphthoflavone). The class given is in vitro ADME. The arrangement: HLMs (1 mg protein·mL^-1); tissue BioIVT; host or cells: pooled human liver microsomes. Particulars: HLMs 1 mg protein/mL, substrate 1 μM, α-naphthoflavone 2 µM. As to the method:
Before starting the experiments, the HLMs were thawed gently on ice. Metabolic stability incubations were performed at 37 °C. The incubations contained 100 mM phosphate buffer saline (PBS, pH 7.4), HLMs (1 mg protein·mL^-1), dimethyl sulfoxide (DMSO, blank control) or a selective CYP inhibitor, and BPI-460372 or positive control substrates (final incubation concentration, 1 μM). The incubation process started with the addition of NADPH (1 mM final concentration) after a 5-minute preincubation period. The chemical inhibitors were as follows: a-naphthoflavone (2 µM) for CYP1A2, ticlopidine (20 µM) for 2B6, quercetin (20 µM) for CYP2C8, sulfaphenazole (20 µM) for CYP2C9, ticlopidine (200 µM) for CYP2C19, quinidine (20 µM) for CYP2D6, and ketoconazole (20 µM) for CYP3A [9]. Aliquots were maintained in acetonitrile containing internal standard (IS) at various time points, such as 0 min, 5 min, 10 min, 20 min, 30 min, and 60 min. All incubations were performed in triplicate, and the concentration in the supernatant was determined by liquid chromatography-tandem mass spectrometry (LC-MS/MS).
The elimination rate constant k (min^-1) was obtained by linear regression from the natural logarithm of the […] of the parent drug and the incubation time. The inhibition rate was calculated using equation 1 [10]: […]

Sequence of CYP2D6 (P10635 whole entry): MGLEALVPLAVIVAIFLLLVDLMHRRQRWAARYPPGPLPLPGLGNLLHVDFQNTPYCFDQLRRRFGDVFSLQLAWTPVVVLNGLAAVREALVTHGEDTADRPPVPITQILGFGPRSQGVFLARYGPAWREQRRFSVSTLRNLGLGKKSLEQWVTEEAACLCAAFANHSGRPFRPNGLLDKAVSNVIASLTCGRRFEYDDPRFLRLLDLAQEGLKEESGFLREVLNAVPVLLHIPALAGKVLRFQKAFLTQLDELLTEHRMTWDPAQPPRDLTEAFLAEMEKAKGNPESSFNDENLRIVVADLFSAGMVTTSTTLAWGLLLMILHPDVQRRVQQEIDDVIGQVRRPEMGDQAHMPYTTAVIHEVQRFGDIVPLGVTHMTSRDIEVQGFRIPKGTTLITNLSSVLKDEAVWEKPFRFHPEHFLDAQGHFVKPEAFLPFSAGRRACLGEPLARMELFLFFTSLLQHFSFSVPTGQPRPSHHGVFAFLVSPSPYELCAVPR
Sequence of CYP2C9 (P11712 whole entry): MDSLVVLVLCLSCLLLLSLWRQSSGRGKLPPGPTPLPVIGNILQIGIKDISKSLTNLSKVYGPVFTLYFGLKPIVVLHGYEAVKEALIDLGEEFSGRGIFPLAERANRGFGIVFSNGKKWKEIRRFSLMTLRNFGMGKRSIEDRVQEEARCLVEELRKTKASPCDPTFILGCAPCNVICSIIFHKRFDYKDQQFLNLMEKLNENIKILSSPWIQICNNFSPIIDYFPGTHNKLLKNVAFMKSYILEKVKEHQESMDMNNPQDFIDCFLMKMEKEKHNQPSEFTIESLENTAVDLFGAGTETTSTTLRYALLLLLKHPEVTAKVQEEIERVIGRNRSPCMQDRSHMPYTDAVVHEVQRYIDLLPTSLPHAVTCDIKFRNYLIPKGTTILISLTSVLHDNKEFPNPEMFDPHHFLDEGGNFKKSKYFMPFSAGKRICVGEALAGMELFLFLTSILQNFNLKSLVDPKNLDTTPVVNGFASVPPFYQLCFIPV
T1 sequence (P08684 whole entry): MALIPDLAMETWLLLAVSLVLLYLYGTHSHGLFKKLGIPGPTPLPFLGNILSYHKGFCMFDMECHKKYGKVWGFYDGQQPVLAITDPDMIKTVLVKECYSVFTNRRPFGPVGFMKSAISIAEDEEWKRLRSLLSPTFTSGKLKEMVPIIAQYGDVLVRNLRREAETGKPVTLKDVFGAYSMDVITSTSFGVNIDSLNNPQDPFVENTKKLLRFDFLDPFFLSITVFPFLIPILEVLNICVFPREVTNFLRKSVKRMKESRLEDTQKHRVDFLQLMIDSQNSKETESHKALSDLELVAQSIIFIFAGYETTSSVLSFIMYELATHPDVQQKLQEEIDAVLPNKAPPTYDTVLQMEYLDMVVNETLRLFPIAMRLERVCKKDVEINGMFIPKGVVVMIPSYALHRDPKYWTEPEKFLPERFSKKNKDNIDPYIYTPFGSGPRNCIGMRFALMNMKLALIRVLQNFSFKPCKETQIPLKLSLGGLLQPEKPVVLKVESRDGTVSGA

In the case of `C=C(F)C(=O)N1CC(n2c(=O)n(-c3ccc(C(F)(F)F)cc3)c3nccnc32)C1` [BPI-460372], the Contribution at recombinant human CYP3A4 was determined as 28.3%; at recombinant human CYP2C8, 8.8%; on CYP2C9, 6.3%; at CYP2D6 it was 43.6%; on CYP1A2 [1] it was 13.1%. In the data set with TEAD palmitoylation, the “Inhibition of the palmitoylation of TEADs” value is given as “inhibit the palmitoylation”. In addition, the “UV (314 nm) Peak Areas Relative Abundance” value in the data set with mouse hepatocytes is 32.74%. For the same compound, the “Inhibition Rate” value at CYP1A2 [2] came out at 32.7%.
